Key:
Macaca mulatta = organism: Macaca mulatta; assay: Percentage recovery in rhesus monkey hepatic microsomal fractions under oxidative conditions after 1 hour; conditions: liver microsomes
[1] = Percentage recovery in rat hepatic microsomal fractions under oxidative conditions after 1 hour; format: ADME; conditions: liver microsomes, read-out: Recovery

remaining at 1 h (Macaca mulatta): 65%
remaining at 1 h [1]: 75%
SMILES: CS(=O)(=O)c1ccc(-c2c(-c3ccccc3)nc3sccn23)cc1
